Laboratory results from US20030216361A1, “Therapeutic compositions effective against gram positive bacteria” (priority 2000, published 2003).
In brackets after ≈: the same amount, converted by molar mass. Like-named read-outs stand apart in the source and are kept apart here.

What was measured:
[1] = system: Methicillin-resistant Staphylococcus aureus, clinical isolate; experiment: Effect of pH on broth macrodilution MICs; type: cell-based
[2] = system: S. aureus ATCC 29213; experiment: Effect of pH on broth macrodilution MICs; type: cell-based, Staphylococcus aureus
[3] = system: Listeria monocytogenes, clinical isolate; experiment: Effect of pH on broth macrodilution MICs; type: cell-based
[4] = system: Staphylococcus aureus ATCC 29213; experiment: Disk diffusion susceptibility testing
[5] = system: Neisseria gonorrhoeae ATCC 49226; experiment: Disk diffusion susceptibility testing
[6] = system: Methicillin-resistant Staphylococcus aureus; experiment: Broth macrodilution MIC and MBC, clinical isolates
[7] = system: Invasive S. pneumoniae; experiment: Broth macrodilution MIC and MBC, clinical isolates
[8] = system: Bacillus subtilis; experiment: Broth macrodilution MIC and MBC, clinical isolates; settings: 4 strains
[9] = system: Paenibacillus alvei; experiment: Broth macrodilution MIC and MBC, clinical isolates; settings: clinical isolate, 1 strain
[10] = system: C. sputi; experiment: Broth macrodilution MIC and MBC, clinical isolates; settings: clinical isolate, 1 strain
[11] = system: N. farcinica; experiment: Broth macrodilution MIC and MBC, clinical isolates; settings: clinical isolate, 1 strain
[12] = system: Lactobacillus spp.; experiment: Broth macrodilution MIC and MBC, clinical isolates; settings: clinical isolate, 1 strain
[13] = system: Gardnerella vaginalis; experiment: Broth macrodilution MIC and MBC, clinical isolates; settings: 2 strains
[14] = system: Staphylococcus aureus ATCC 29213; experiment: Broth macrodilution MIC and MBC, reference strains; settings: ATCC29213
[15] = pH 6, range of 3 determinations
[16] = pH 7, range of 3 determinations
[17] = pH 8, range of 3 determinations

CC(=O)O[C@H]1CC[C@@]2(C)[C@@H](CC[C@@H]3[C@@H]2CC[C@]2(C)[C@@H](NC(=O)[C@@H]4CCCN4)CC[C@@H]32)C1
MIC Range [1, 15]: 16 µg/mL (≈ 37.2 µM) | MIC Range [1, 16]: 8 µg/mL (≈ 18.6 µM) | MIC Range [1, 17]: 4 µg/mL (≈ 9.29 µM) | MIC Range [2, 15]: 8 to 16 µg/mL | MIC Range [2, 16]: 8 µg/mL (≈ 18.6 µM) | MIC Range [2, 17]: 4 µg/mL (≈ 9.29 µM) | MIC Range [3, 15]: 32 µg/mL (≈ 74.3 µM) | MIC Range [3, 17]: 16 µg/mL (≈ 37.2 µM) | MIC [4]: 12.5-25 μg/disk | MIC [5]: >100 μg/disk | MIC50 ([6]; Staphylococcus aureus): 8 µg/mL (≈ 18.6 µM) | MIC90 ([6]; Staphylococcus aureus): 8 µg/mL (≈ 18.6 µM) | MBC ([6]; Staphylococcus aureus, read-out: MBC 50%): 16 µg/mL (≈ 37.2 µM) | MBC ([6]; Staphylococcus aureus, read-out: MBC 90%): > 64 µg/mL | MIC Range ([6]; clinical isolates, 22 strains): 4 to 8 µg/mL | share of strains with MBC/MIC ratios ≦2 ([6]; methicillin-resistant S. aureus): 73% | MIC50 ([7]; Streptococcus pneumoniae): 8 µg/mL (≈ 18.6 µM) | MBC Range ([7]; clinical isolates, 15 strains): 8 to 64 µg/mL | share of strains with MBC/MIC ratios ≦2 ([7]; invasive S. pneumoniae): 93% | MIC Range [8]: 8 µg/mL (≈ 18.6 µM) | MBC Range [9]: >64 µg/mL | MIC Range [9]: 16 µg/mL (≈ 37.2 µM) | MBC Range [10]: 32 µg/mL (≈ 74.3 µM) | MIC Range ([10]; read at 72 h): 8 µg/mL (≈ 18.6 µM) | MBC Range [11]: 64 µg/mL (≈ 149 µM) | MIC Range [11]: 16 µg/mL (≈ 37.2 µM) | MBC Range [12]: 32 µg/mL (≈ 74.3 µM) | MIC Range [12]: 16 µg/mL (≈ 37.2 µM) | MBC Range [13]: 8 µg/mL (≈ 18.6 µM) | MIC Range ([13]; read after 48 h): 4 µg/mL (≈ 9.29 µM) | MBC [14]: 64 µg/mL (≈ 149 µM) | MIC [14]: 4 µg/mL (≈ 9.29 µM)
